From patent US20170368089A1, “COMPOSITION FOR PREVENTING OR TREATING COLITIS” (UNIVERSITY-INDUSTRY COOPERATION GROUP OF KYUNG HEE …, priority 2012, published 2017)

Experiments:
[1] = tested on: model animal with acute colitis induced by TNBS; assay: Acute colitis induced by TNBS in mice, appearance analysis of colon (colon length, macroscopic score), first experiment; type: in vivo, ICR male mice; conditions: Table 3 (group 2); TNBS-treated mice, 10 mg/kg orally, 3 days
Method: 4-week ICR male mice (24 to 27 g) were purchased from OrientBio. All the mice were bred under the controlled environmental conditions of 50±10% of humidity and 25±2° C. of temperature, and the lighting was repeatedly on for 12 hours and off for 12 hours. A feed for a standard experiment (Samyang, Korea) was used as a feed, and water was freely taken. For all the experiments, one group was 6 mice. […] Meanwhile, 0.1 ml of normal saline solution was orally administered to the normal group. Since then, from the next day, the sample dissolved in normal saline solution was orally administered in the volume that was decided in advance one time a day for 3 days. At the next day after completing the sample administration, the experimental animals were suffocated to death with carbon dioxide, the colon from appendix to the region just before the anus was removed from the colon region. The scores about the removed colons were estimated by observing the appearances and the lengths of the colons according to the following criteria (Hollenbach, and the like, the criteria about the level of colon in 2005) as listed in Table 1. […] In addition, some of the content in the colon was collected in order to analyze the rumen microorganisms, and then, was stored in a freezer of −80° C. From the tissue of colon, the content in the colon was completely removed and then the tissue of colon was washed with normal saline solution. Since then, some of the tissue was fixed with 4% formaldehyde fixing solution in order to be used as a sample for a histopathological examination, and the rest was stored in a freezer of −80° C. for a molecular biological analysis.

[2] = tested on: Myeloperoxidase (MPO); assay: MPO activity of colon tissue (mouse MPO ELISA kit), TNBS colitis, first experiment; type: in vivo, ICR male mice; conditions: TNBS-treated mice, 10 mg/kg orally, 3 days
Method: (§1) Among the experimental groups, one group was set as a normal group, and for the experimental animals in other groups, colitis was induced with 2,4,6-trinitrobenzenesulfonic acid (TNBS). In detail, after lightly anesthetizing the experimental animals with ether, 0.1 ml of the solution prepared by mixing […] of 2,4,6-Trinitrobenzene sulfonic acid (NBS) solution with 50% ethanol was injected into the colon through the anus using a syringe having 1 ml volume and oval point, respectively; and then, the syringe was vertically picked up, and then, maintained for 30 seconds to induce the inflammation. Meanwhile, 0.1 ml of normal saline solution was orally administered to the normal group. Since then, from the next day, the sample dissolved in normal saline solution was orally administered in the volume that was decided in advance one time a day for 3 days. At the next day after completing the sample administration, the experimental animals were suffocated to death with carbon dioxide, the colon from appendix to the region just before the anus was removed from the colon region.
200 μl of lysis buffer was added to 100 mg of colon tissue, and then, the colon tissue was homogenized. Since then, the homogenized colon tissue was centrifuged under the conditions of 4° C. and 13000 rpm for 15 minutes, and then, the supernatant thereof was obtained. In the supernatant, the MPO activity was measured using a mouse MPO assay ELISA kit (Hbt HK210, USA). 100 μl of the supernatant was added in a 96 well plate, and then, reacted at room temperature for 1 hour. After completing the reaction, the plate was overturned and emptied; was repeatedly washed three times with 200 μl of washing buffer solution; 100 μl of diluted tracer was added thereto; and then the reaction was performed at room temperature for 1 hour. After completing the reaction, the plate was overturned and emptied; and then each well in the plate was washed using 200 μl of washing buffer solution. After repeatedly performing the washing processes three times using 200 μl of washing buffer solution, 100 μl of diluted streptavidin-peroxidase conjugate was added thereto, and then, the reaction was performed at room temperature for 1 hour. After completing the reaction, the plate was overturned and emptied, and then, each well in the plate was washed with 200 μl of washing buffer solution. After the washing processes were repeatedly performed three times using 200 μl of washing buffer solution, 100 μl of TMB substrate solution was added thereto; the plate was wrapped in an aluminum foil to block out the light; and then, the reaction was performed at room temperature for 30 minutes. Since then, 100 μl of a stop solution was added to stop the reaction, and then, the absorbance was measured at 450 nm using an ELISA reader.

[3] = tested on: IL-1 beta; assay: IL-1 beta expression in colon tissue (ELISA), TNBS colitis, first experiment; type: in vivo, ICR male mice; conditions: TNBS-treated mice, 10 mg/kg orally, 3 days
Method: as §1
(§2) 250 μl of RIPA butter including protease inhibitor cocktail was added to 100 mg of the colon tissue of experimental animal, and then, the colon tissue was homogenized. Since then, the homogenized colon tissue was centrifuged under the conditions of 4° C. and 13000 rpm for 15 minutes to obtain supernatant. While the supernatant was stored at −80° C., the expression amounts of IL-1 beta, IL-6, and TNF-alpha were measured using a 96-well ELISA plate kits (Pierce Biotechology, Inc., Rockford, Ill., USA).

[4] = tested on: TNF-alpha; assay: TNF-alpha expression in colon tissue (ELISA), TNBS colitis, first experiment; type: in vivo, ICR male mice; conditions: Table 4 (group 1), TNBS-treated mice, 10 mg/kg orally, 3 days
Method: as §1, §2

[5] = tested on: TNF-alpha; assay: TNF-alpha expression in colon tissue (ELISA), TNBS acute colitis, third experiment; type: in vivo, male mice (C57BL/6); conditions: Table 12; TNBS-treated mice, 10 mg/kg orally, 3 days
Method: (§3) Meanwhile, 0.1 ml of normal saline solution was orally administered to the normal group. Since then, from the next day, the sample dissolved in normal saline solution was orally administered in the volume that was decided in advance one time a day for 3 days. At the next day after completing the sample administration, the experimental animals were suffocated to death with carbon dioxide, and the colon from appendix to the region just before the anus was removed from the colon region. At this time, as a medicine sample, the experiments using the butanol-soluble fraction of the Anemarrhena asphodeloides Bunge extract, Mangiferin, and a combined extract were separately performed at a distance of time, respectively, and the effects of the medicine samples on preventing or treating colitis were reasonably analyzed based on the group supplied with normal saline solution instead of a specific medicine in the model animals with acute colitis induced by TNBS for each of the experiments. […] While the supernatant was stored at −80° C., the expression amounts of IL-1 beta, IL-6, and TNF-alpha, which were proinflammatory cytokines, and the expression amount of IL-10, which was anti-inflammatory cytokine, were measured using a 96-well ELISA plate kits (Pierce Biotechology, Inc., Rockford, Ill., USA).

[6] = tested on: IL-1 beta; assay: IL-1 beta expression in colon tissue (ELISA), TNBS acute colitis, third experiment; type: in vivo, male mice (C57BL/6); conditions: Table 12; TNBS-treated mice, 10 mg/kg orally, 3 days
Method: as §3

[7] = tested on: IL-6; assay: IL-6 expression in colon tissue (ELISA), TNBS acute colitis, third experiment; type: in vivo, male mice (C57BL/6); conditions: Table 12; TNBS-treated mice, 10 mg/kg orally, 3 days
Method: as §3

SMILES: Nc1ccc(O)c(C(=O)O)c1 [mesalazine, Mesalazine]
- Colon length [1]: 7.1 ± 0.46 cm
- MPO activity ([2]; Table 2 (group 1)): 1.8 ± 0.2 μUnit/mg
- MPO activity ([2]; Table 3 (group 2)): 0.2 ± 0.1 μUnit/mg
- IL-1 beta conc. ([3]; Table 4 (group 1)): 19.8 ± 14.4 pg/mg
- IL-1 beta conc. ([3]; Table 5 (group 2)): 31.1 ± 2.9 pg/mg
- TNF-alpha conc. [4]: 26.1 ± 8.8 pg/mg
- TNF-α (Percentage to group supplied with normal saline solution after treating TNBS) [5]: 36.8%
- IL-1β (Percentage to group supplied with normal saline solution after treating TNBS) [6]: 30.3%
- IL-6 (Percentage to group supplied with normal saline solution after treating TNBS) [7]: 26.6%
